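Method: 48-hour compound exposure of cells in 96-well plates, five concentrations, linear interpolation of endpoints. GI50 is the concentration that inhibits growth by half. The concentration for full growth arrest is given as TGI.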
Assays:
Test in all cases: inhibition of tumour cell growth, NCI panel, 48 h
[1] = tested on: OVCAR-5 ovarian
[2] = tested on: LOX IMVI melanoma
[3] = tested on: MOLT-4 leukemia
[4] = tested on: OVCAR-3 ovarian
[5] = tested on: HCC-2998 colon
[6] = tested on: HT29 colon
[7] = tested on: NCI-H522 lung
[8] = tested on: OVCAR-4 ovarian
[9] = tested on: NCI-H460 lung
[10] = tested on: MCF7 breast
[11] = tested on: CCRF-CEM leukemia
[12] = tested on: SF-539 CNS
[13] = tested on: RPMI-8226 leukemia
[14] = tested on: OVCAR-8 ovarian
[15] = tested on: SK-MEL-28 melanoma
[16] = tested on: SK-MEL-2 melanoma
[17] = tested on: MDA-MB-231 breast
[18] = tested on: T-47D breast
[19] = tested on: SR leukemia
[20] = tested on: A498 renal
[21] = tested on: COLO 205 colon
[22] = tested on: UO-31 renal
[23] = tested on: SNB-75 CNS
[24] = tested on: CAKI-1 renal
[25] = tested on: NCI-H23 lung
[26] = tested on: U251 CNS
[27] = tested on: SNB-19 CNS
[28] = tested on: SW-620 colon
[29] = tested on: M14 melanoma

## O=C(c1ccc(Cl)cc1)C1[C@H](c2ccccc2Br)[C@@H](c2ccccc2)NC12C(=O)Nc1ccc(Br)cc12 (stereo partly drawn)
[1]
  GI50: 10.2 µM
  TGI: > 49 µM
[2]
  GI50: 4.95 µM
  TGI: 13.5 µM
[3]
  GI50: 2.4 µM
  TGI: 25.2 µM
[4]
  GI50: 5.07 µM
  TGI: 29.5 µM
[5]
  GI50: 8.14 µM
  TGI: 33.8 µM
[6]
  GI50: 6.21 µM
  TGI: 17.2 µM
[7]
  GI50: 2.44 µM
  TGI: 26.2 µM
[8]
  GI50: 10.1 µM
  TGI: > 49 µM
[9]
  GI50: 5.94 µM
  TGI: 15 µM
[10]
  GI50: 2.64 µM
  TGI: > 49 µM
[11]
  GI50: 5.97 µM
  TGI: 26.5 µM
[12]
  GI50: > 49 µM
  TGI: > 49 µM
[13]
  GI50: 8.15 µM
  TGI: > 49 µM
[14]
  GI50: 11 µM
  TGI: > 49 µM
[15]
  GI50: 20.3 µM
  TGI: > 49 µM
[16]
  GI50: 7.37 µM
  TGI: > 49 µM
[17]
  GI50: 5.01 µM
  TGI: 23 µM
[18]
  GI50: 3.88 µM
  TGI: > 49 µM
[19]
  GI50: 3.01 µM
  TGI: 18.7 µM
[20]
  GI50: > 49 µM
  TGI: > 49 µM
[21]
  GI50: 7.1 µM
  TGI: 15.5 µM
[22]
  GI50: 4.83 µM
  TGI: > 49 µM
[23]
  GI50: 1.31 µM
  TGI: > 49 µM
[24]
  GI50: 1.88 µM
  TGI: > 49 µM
[25]
  GI50: 7.91 µM
  TGI: > 49 µM
[26]
  GI50: 8.25 µM
  TGI: 31.6 µM
[27]
  GI50: 23.2 µM
  TGI: > 49 µM
[28]
  GI50: 9.5 µM
  TGI: > 49 µM
[29]
  GI50: 7.81 µM
  TGI: 34.9 µM

Reference: PubChem BioAssay (NCI)
